Measurements from US9199927B2, “Guanidinobenzoic acid compound” (Astellas Pharma Inc., priority 2011, dated 2015).
pIC50: −log10 of the molar value. Where a name gives a salt, the structure may show the parent alone.

Tests used:
[1] = target: human recombinant trypsin (r-h trypsin) (Homo sapiens (Human), UniProt P07477); assay: Inhibitory activity of trypsin enzyme (human recombinant trypsin, BZiPAR fluorescent substrate); format: biochemical; details: human recombinant trypsin 0.088 μg/mL, 30 minutes at room temperature
Protocol: (§1) 1. Inhibitory Activity of Trypsin Enzyme in Humans and Mice
(§2) In the experiment, human recombinant trypsin (r-h trypsin; manufactured by WAKO, cat. #206-17171) and mouse trypsin (m-trypsin; purified from the mouse small intestine contents by the present Company) were used.
(§3) The outline of the measurement method is shown below.
(§4) The compound was dissolved in dimethyl sulfoxide (DMSO), and diluted to an arbitrary concentration (A). A was 100-fold diluted with a buffer (0.1 M Tris (pH 8.0), 0.15 M NaCl, 10 mM CaCl2, 0.05% Brij38) (B). The r-h trypsin was diluted with a buffer to 0.088 μg/mL, and the m-trypsin was diluted with a buffer to 1/50 (C). […] The substrate solution of a substrate for the enzyme reaction, BZiPAR, (Rhodamine Reference Substrate) was diluted with a buffer to 5 μmol/L (D). B; 5 μL, C; 5 μL, and D; 10 μL were added to a 384-plate, and incubated at room temperature for 30 minutes. The fluorescent signals were detected with Ex/Em=497/520 using Tecan Safire Fluorometer. […] Based on the obtained inhibitory rates, IC50 values (nM) were calculated from the non-linear regression. The test was carried out in the same manner, using camostat as a control compound.
(§5) Ex in the table represents the Example No. as denoted below.

[2] = target: mouse trypsin (m-trypsin); assay: Inhibitory activity of trypsin enzyme (mouse trypsin purified from small intestine contents, BZiPAR fluorescent substrate); format: biochemical; details: mouse trypsin diluted 1/50, BZiPAR substrate, 30 minutes at room temperature
Text: as §1, §2
The method to extract the trypsin from the mouse small intestine is shown below.
The small intestine contents and the gastrointestinal tract of 10 mice were suspended in PBS using Polytron and subjected to centrifugation at 15,000×g several times. The supernatant was mixed at 4° C. for 16 hours with a Benzamidine Sepharose 4 Fast Flow Resin (GE Healthcare: #17-5123-10). After washing the resin with PBS, m-trypsin was eluted with a glycine elution buffer (pH 3.0).
as §3, §4, §5

ICR mice = assay: Increasing study of fecal protein concentration in mice; format: in vivo; details: Mus musculus, 5 mg/kg oral, feces collected 3 to 9 hours after, control = 1, read-out: protein increasing activity in feces, fold vs control
Protocol: 2. Increasing Study of Fecal Protein Concentration in Mice
For the experiment, 6-weeks old ICR mice (male) were used, and the experiment was carried out in five per group. After fasting the mice for 15 hours, the control group was forcibly orally administered with a 0.5% methyl cellulose (MC) solution, and the test drug group was forcibly orally administered (5 mg/kg) with a solution or suspension obtained by dissolving or suspending the compound in the 0.5% MC solution. The fasting was stopped immediately thereafter, free feeding (CE-2) started and then the feces were collected from after 3 hours to after 9 hours. All of the obtained feces were dissolved and suspended in 6 mL of distilled water, and centrifuged for 10 minutes at 3000 rpm. The protein concentration in the supernatant was measured by a Bradford method, and the amount of the protein in 1 g of feces was calculated by dividing the protein concentration in the feces by the total weight of feces. Further, the efficacy was investigated from the ratio to the control. For the compounds that were evaluated multiple times, the average values were calculated.
For some representative compounds, the protein increasing activities in feces are shown in Table 2, assuming a value for the control as 1. Ex in the table represents the Example No. as denoted below of the test compound.

SMILES	melting point	pIC50 [1]	pIC50 [2]	response vs control in vivo at 5 mg/kg (ICR mice)
N=C(N)Nc1ccc(C(=O)Oc2ccc3nc(C(=O)N(CC(=O)O)Cc4cccc(C(=O)O)c4)ccc3c2)cc1 [Example 4, 3-{[({6-[(4-carbamimidamidobenzoyl)oxy]quinolin-2-yl}carbonyl)(carboxymethyl)amino]methyl}benzoic acid]	255 °C	–	–	–
CC(C)(Oc1ccc(C[C@H](NC(=O)CCc2ccc(OC(=O)c3ccc(NC(=N)N)cc3)cc2Cl)C(=O)O)cc1)C(=O)O [Example 96]	–	9.66	9.34	202%
N=C(N)Nc1ccc(C(=O)Oc2ccc(CCC(=O)N(CC(=O)O)Cc3ccccc3C(=O)O)c(Cl)c2)cc1 [Example 53]	–	9.35	9.46	179%
N=C(N)Nc1ccc(C(=O)Oc2ccc(CCC(=O)N(CC(=O)O)Cc3cccc(C(=O)O)c3)c(Cl)c2)cc1 [Example 36]	–	9.37	9.42	192%
CN(C(=O)N(CC(=O)O)Cc1cccc(C(=O)O)c1)c1ccc(OC(=O)c2ccc(NC(=N)N)cc2)cc1Cl [Example 61]	–	9.64	9.85	167%
CN(C(=O)N(CC(=O)O)Cc1csc(C(=O)O)c1)c1ccc(OC(=O)c2ccc(NC(=N)N)cc2)cc1Cl [Example 111]	–	9.27	9.36	201%
N=C(N)Nc1ccc(C(=O)Oc2ccc3nc(C(=O)N(CC(=O)O)Cc4csc(C(=O)O)c4)ccc3c2)cc1 [Example 80]	–	9.68	9.52	189%
N=C(N)Nc1ccc(C(=O)Oc2ccc(CCC(=O)N(CCc3cccc(C(=O)O)c3)CC(=O)O)c(Cl)c2)cc1 [Example 58]	–	9.14	9.17	179%
N=C(N)Nc1ccc(C(=O)Oc2ccc(CCC(=O)N(CC(=O)O)Cc3cccc(C(=O)O)c3)c(Cl)c2)cc1 (as salt: mesylate) [Example 3, 3-{[(3-{4-[(4-carbamimidamidobenzoyl)oxy]-2-chlorophenyl}propanoyl)(carboxymethyl)amino]methyl}benzoic acid mesylate]	197 °C	–	–	–
CC(C(=O)N(CC(=O)O)Cc1cccc(C(=O)O)c1)c1ccc(OC(=O)c2ccc(NC(=N)N)cc2)cc1Cl (stereo not drawn) [Example 5, 3-{[(2-{4-[(4-carbamimidamidobenzoyl)oxy]-2-chlorophenyl}propanoyl)(carboxymethyl)amino]methyl}benzoic acid]	208 °C	–	–	–
